This test addresses Smoothened (Mus musculus, UniProt P56726). The test can be described thus: displacement of BODIPY-cyclopamine. The format is cell-based.

From paper PMC6954722 (Stem Cells Translational Medicine, 2019) come the findings set out here.

Chain of Smoothened (P56726 33-793): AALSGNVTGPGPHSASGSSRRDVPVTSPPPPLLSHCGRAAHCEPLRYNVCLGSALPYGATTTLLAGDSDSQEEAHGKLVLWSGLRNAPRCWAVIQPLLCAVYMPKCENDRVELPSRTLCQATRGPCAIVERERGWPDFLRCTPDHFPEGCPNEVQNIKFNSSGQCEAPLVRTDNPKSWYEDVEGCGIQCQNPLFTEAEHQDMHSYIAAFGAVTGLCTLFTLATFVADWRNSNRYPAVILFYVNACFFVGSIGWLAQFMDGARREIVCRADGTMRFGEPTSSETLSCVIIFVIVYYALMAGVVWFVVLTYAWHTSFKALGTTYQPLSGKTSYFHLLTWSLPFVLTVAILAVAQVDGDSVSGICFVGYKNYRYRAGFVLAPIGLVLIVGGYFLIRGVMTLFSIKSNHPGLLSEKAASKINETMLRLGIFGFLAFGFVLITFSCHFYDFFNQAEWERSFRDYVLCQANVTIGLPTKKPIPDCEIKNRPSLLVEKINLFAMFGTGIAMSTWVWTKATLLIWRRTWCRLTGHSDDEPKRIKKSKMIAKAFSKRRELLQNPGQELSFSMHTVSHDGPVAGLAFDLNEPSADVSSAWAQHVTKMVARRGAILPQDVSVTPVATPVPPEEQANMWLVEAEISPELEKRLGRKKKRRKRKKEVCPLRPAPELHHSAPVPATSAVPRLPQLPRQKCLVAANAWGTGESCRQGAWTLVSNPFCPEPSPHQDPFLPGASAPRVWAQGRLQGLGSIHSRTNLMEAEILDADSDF

For `O=[N+]([O-])c1ccc(S(=O)(=O)N2CCN(c3ccccc3)CC2)cc1` [compound #5, 1‐[(4‐nitrophenyl)sulfonyl]‐4‐phenylpiperazine], the half-inhibitory concentration (IC50) worked out at 88 ± 3.7 µM.

The term IC50 denotes the midpoint of a concentration-inhibition curve.
